{
  "source": "patent US11986452B2",
  "about": "“Methods of reducing the risk of heart failure” (Amarin Pharmaceuticals Ireland Limited, priority 2021, dated 2024)",
  "test_system": "statin-treated patients with established atherosclerosis or diabetes plus risk factor",
  "assay": "Example 2: recurrent and total ischemic events analysis (Andersen-Gill, Wei-Lin-Weissfeld)",
  "format": "in vivo, human",
  "settings": "for Total key secondary endpoint events: HR vs placebo: without adjustment for stratification differences",
  "text": "The following study was a multi-center, placebo-controlled clinical trial the details of which are described above in Example 1, the REDUCE-IT design. […] Randomization was stratified by cardiovascular risk cohort (i.e., secondary or primary prevention), use of ezetimibe, and by geographic region.\nThe primary outcome for the study was total recurrent events consisting of the composite of cardiovascular death, nonfatal myocardial infarction, nonfatal stroke, coronary revascularization, or hospitalization for unstable angina. Recurrent event analyses were also performed for the key secondary endpoint, a composite of cardiovascular death, non-fatal myocardial infarction, or non-fatal stroke. For each of these composite endpoints, the effects of icosapent ethyl in the secondary and primary prevention strata were examined separately.\nDemographic and baseline disease characteristics are presented using frequencies and percentages for categorical variables and medians with interquartile ranges for continuous variables. Between treatment group comparisons were derived using the chi-square test for categorical variables and Wilcoxon rank test for continuous variables. All clinical endpoint events used in the efficacy analyses were adjudicated by an independent Clinical Endpoint Committee (CEC) who were blinded to the treatment assignment. Since the primary efficacy endpoint was the time from randomization to the first occurrence of any component of the composite endpoint, and recurrence of such events within each patient is possible, a pre-specified analysis using a Cox proportional-hazard with the counting-process formulation of Andersen and Gill was performed to model the first and all recurrent cardiovascular events. Hazard ratios (HR) and corresponding 95% confidence intervals (CI) are reported from this model. In addition, as a marginal model and an extension of survival models based on the Cox proportional hazard model, the modified Wei-Lin-Weissfeld (WLW) method for analysis of recurrent events in the presence of deaths was carried out as a supportive analysis. In addition, as pre-specified, a recurrent event analysis using the Andersen-Gill and Wei-Lin-Weissfeld methods were carried out for the individual primary event components other than CV death. Though not pre-specified, additional recurrent event analyses were performed for the key secondary endpoint, which is a composite of CV death, non-fatal MI, or non-fatal stroke, and for the primary endpoint and the key secondary endpoint in the primary and secondary prevention strata to explore further the consistency of clinical benefit of icosapent ethyl. In subgroup analyses of the two cardiovascular risk strata (i.e., primary and secondary prevention), site-level discrepancies in cardiovascular risk group assignment occurring at entry and detected during the study (1.8%) were adjusted to conform with documented medical history data prior to randomization. All efficacy analyses were performed according to the intention-to-treat principle. All tests were based on a 2-sided nominal significance level of 5% with no adjustments for multiple comparisons.",
  "data": [
    {"smiles": "CC/C=C\\C/C=C\\C/C=C\\C/C=C\\C/C=C\\CCCC(=O)OCC", "note": "[icosapent ethyl, eicosapentaenoic acid ethyl ester]", "values": [
      {"measurement": "Total key secondary endpoint: HR vs placebo", "setting": "primary prevention stratum", "value": 0.71},
      {"measurement": "Total primary endpoint events: HR vs placebo", "setting": "primary prevention stratum, adjusted stratification", "value": 0.79},
      {"measurement": "Total primary endpoint events: HR vs placebo", "setting": "primary prevention stratum, without adjusting for stratification differences", "value": 0.86},
      {"measurement": "Total key secondary endpoint events: HR vs placebo", "setting": "primary prevention", "value": 0.78},
      {"measurement": "Total key secondary endpoint: HR vs placebo", "setting": "secondary prevention stratum", "value": 0.70},
      {"measurement": "Total primary endpoint events: HR vs placebo", "setting": "secondary prevention stratum, adjusted stratification", "value": 0.66},
      {"measurement": "Total primary endpoint events: HR vs placebo", "setting": "secondary prevention stratum, without adjusting for stratification differences", "value": 0.65},
      {"measurement": "Total key secondary endpoint events: HR vs placebo", "setting": "secondary prevention stratum", "value": 0.69}
    ]}
  ]
}
